Counter-ions that a name gives are not always drawn.
Legend:
[1] = Metabolic stability in human liver microsomes; type: in vitro ADME; conditions: human liver microsomes 1.0 mg/mL, compound 1 μM, NADPH, first number of HLM/MLM cell
Text: (§1) Metabolic Stability in Liver Microsomes
(§2) The purpose of this experiment is to measure the metabolic half-life of NCEs in sub-cellular fractions such as human liver microsomes (HLM) or mouse liver microsomes (MLM). This provides an in vitro means to calculate intrinsic hepatic clearance, and to support the prediction of human pharmacokinetics. This approach has been successfully utilized at early phase of drug discovery projects, to provide SAR input for reducing metabolic instability and for predicting in vivo hepatic clearance.
(§3) Procedure: Potassium phosphate buffer (66.7 mM, pH 7.4) containing liver microsomes (mouse and human) (1.0 mg/mL) was pre-incubated separately with compound (1 μM) and positive control (verapamil, 1 μM) in a 37° C. water bath for 5 min. The reactions were initiated by adding 20 μL of 10 mM NADPH. Reactions without NADPH (0 and 30 min) were also incubated to rule out non-NADPH metabolism or chemical instability in the incubation buffer. All reactions were terminated using 200 μL of ice-cold acetonitrile containing internal standard at 0, 5, 15 and 30 min. The vials were centrifuged at 3000 rpm for 15 min. The supernatants thus obtained were analyzed on LC-MS/MS to monitor the disappearance of test compound.

[2] = target: T1, PD-1/PD-L1 interaction (Homo sapiens, UniProt Q9NZQ7); experiment: PD-1/PD-L1 HTRF binding assay (CisBio kit); conditions: HTRF PD1/PD-L1 inhibition assay
T1 construct: purchased CisBio 63ADK000CPAPEG
T1 sequence (Q9NZQ7 19-238 limits assumed): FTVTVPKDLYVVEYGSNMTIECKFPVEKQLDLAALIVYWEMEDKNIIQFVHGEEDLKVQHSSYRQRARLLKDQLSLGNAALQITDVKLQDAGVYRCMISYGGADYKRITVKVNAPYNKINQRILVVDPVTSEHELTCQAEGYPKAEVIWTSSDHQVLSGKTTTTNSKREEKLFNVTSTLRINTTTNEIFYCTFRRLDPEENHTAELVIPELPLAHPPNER
Protocol: PD-L1 Enzyme Assay: Homogenous Time-Resolved Fluorescence (HTRF) Binding Assay
All binding studies were performed using PD-1/PD-L1 Binding Assay Kit from CisBio (Catalog #63ADK000CPAPEG), according to the manufacturer's protocol. The interaction between Tag1-PD-1 and […] was detected by anti-Tag1-Eu^3+ (HTRF donor) and anti-Tag2-XL665 (HTRF acceptor). When the donor and acceptor antibodies were brought to close proximity due to PD-1 and PD-L1 binding, excitation of the donor antibody triggered fluorescent resonance energy transfer (FRET) towards the acceptor antibody, which in turn emitted specifically at 665 nm. This specific signal is positively proportional to PD-1/PD-L1 interaction. The compounds blocking PD-1/PD-L1 interaction will cause a reduction in HTRF signal. The necessary reagents were mixed in the following order: 2 μL compounds (or diluents buffer), 4 μL PD-L1 protein, 4 μL PD-1 protein. After an incubation of 15 minutes, 5 μL of anti-Tag1-Eu^3+ and 5 μL of anti-Tag2-XL665 were added. The plate was sealed and incubated at room temperature for 1 h. The fluorescence emission was read at two different wavelengths (665 nm and 620 nm) on a BMG PheraStar® multi-plate reader.
Results were calculated from the 665 nm and 620 nm fluorescence signal and expressed in HTRF ratio=(665 nm/620 nm)×10^4.
Compounds having IC50<100 nM are designated as “A”; 100-500 nM are designated as “B”; and >500 nM are designated as “C” respectively.

[3] = Metabolic stability in mouse liver microsomes; type: in vitro ADME; conditions: mouse liver microsomes 1.0 mg/mL, compound 1 μM, NADPH, second number of HLM/MLM cell
Text: as §1, §2, §3

Compound | HLM % remaining @ 30 min [1] | IC50 [2] [nM] | MLM % remaining @ 30 min [3]
Cc1c(COc2cc(OCc3cncc(C#N)c3)c(CN3CCCC[C@H]3CO)c3c2CCC3)cccc1-c1ccccc1 [Example 1, (S)-5-(((4-((2-(hydroxymethyl)piperidin-1-yl)methyl)-7-((2-methyl-[1,1′-biphenyl]-3-yl)methoxy)-2,3-dihydro-1H-inden-5-yl)oxy)methyl)nicotinonitrile] | 72% | < 100 | 83%
Cc1c(COc2cc(OCc3cccc(C#N)c3)c(CN3CCCC[C@H]3CO)c3c2CCC3)cccc1-c1ccccc1 [Example 2, (S)-3-(((4-((2-(hydroxymethyl)piperidin-1-yl)methyl)-7-((2-methyl-[1,1′-biphenyl]-3-yl)methoxy)-2,3-dihydro-1H-inden-5-yl)oxy)methyl)benzonitrile] | 58% | < 100 | 62%
N#Cc1cncc(COc2cc(OCc3cccc(-c4ccccc4)c3C#N)c3c(c2CN2CCC[C@H]2CO)CCC3)c1 [Example 3, (S)-5-(((7-((2-cyano-[1,1′-biphenyl]-3-yl)methoxy)-4-((2-(hydroxymethyl)pyrrolidin-1-yl)methyl)-2,3-dihydro-1H-inden-5-yl)oxy)methyl)nicotinonitrile] | 22% | < 100 | 14%
N#Cc1cccc(COc2cc(OCc3cccc(-c4ccccc4)c3C#N)c3c(c2CN2CCC[C@H]2CO)CCC3)c1 [Example 4, (S)-3-(((6-((3-cyanobenzyl)oxy)-7-((2-(hydroxymethyl)pyrrolidin-1-yl)methyl)-2,3-dihydro-1H-inden-4-yl)oxy)methyl)-[1,1′-biphenyl]-2-carbonitrile] | 20/20% | < 100 | 20/20%
N#Cc1cncc(COc2cc(OCc3cccc(-c4ccccc4)c3C#N)c3c(c2CN2CCCC[C@H]2CO)CCC3)c1 [Example 5, (S)-5-(((7-((2-cyano-[1,1′-biphenyl]-3-yl)methoxy)-4-((2-(hydroxymethyl)piperidin-1-yl)methyl)-2,3-dihydro-1H-inden-5-yl)oxy)methyl)nicotinonitrile] | 16% | < 100 | 13%
Cc1c(COc2cc(OCc3cncc(C#N)c3)c(CN3C[C@H](O)C[C@H]3CO)c3c2CCC3)cccc1-c1ccccc1 [Example 6] | 67% | < 100 | 87%
Cc1c(COc2cc(OCc3cccc(C#N)c3)c(CN3CCC[C@H]3CO)c3c2CCC3)cccc1-c1ccccc1 [Example 7, (S)-3-(((4-((2-(hydroxymethyl)pyrrolidin-1-yl)methyl)-7-((2-methyl-[1,1′-biphenyl]-3-yl)methoxy)-2,3-dihydro-1H-inden-5-yl)oxy)methyl)benzonitrile] | 66% | < 100 | 76%
Cc1c(COc2cc(OCc3cncc(C#N)c3)c(CN3CCC[C@H]3CO)c3c2CCC3)cccc1-c1ccccc1 [Example 8, (S)-5-(((4-((2-(hydroxymethyl)pyrrolidin-1-yl)methyl)-7-((2-methyl-[1,1′-biphenyl]-3-yl)methoxy)-2,3-dihydro-1H-inden-5-yl)oxy)methyl)nicotinonitrile] | 61% | < 100 | 85%
Cc1c(COc2cc(OCc3cncc(C#N)c3)c(CN3CC4(CCC3CO)CC4)c3c2CCC3)cccc1-c1ccccc1 (stereo not shown) [Example 11, 5-(((4-((6-(hydroxymethyl)-5-azaspiro[2.5]octan-5-yl)methyl)-7-((2-methyl-[1,1′-biphenyl]-3-yl)methoxy)-2,3-dihydro-1H-inden-5-yl)oxy)methyl)nicotinonitrile] | 21% | < 100 | 11%
Cc1c(COc2cc(OCc3cncc(C#N)c3)c(CN3CC4(CC4)C[C@H]3CO)c3c2CCC3)cccc1-c1ccccc1 [Example 25, (S)-5-(((4-((6-(hydroxymethyl)-5-azaspiro[2.4]heptan-5-yl)methyl)-7-((2-methyl-[1,1′-biphenyl]-3-yl)methoxy)-2,3-dihydro-1H-inden-5-yl)oxy)methyl)nicotinonitrile] | 45% | < 100 | 61%
N#Cc1cncc(COc2cc(OCc3cccc(-c4ccccc4)c3C#N)c3c(c2CN2CC4(CC4)C[C@H]2CO)CCC3)c1 [Example 26, (S)-5-(((7-((2-cyano-[1,1′-biphenyl]-3-yl)methoxy)-4-((6-(hydroxymethyl)-5-azaspiro[2.4]heptan-5-yl)methyl)-2,3-dihydro-1H-inden-5-yl)oxy)methyl)nicotinonitrile] | 6% | < 100 | 5%

Results, then the molecule that gave them:

HLM % remaining @ 30 min [1] | IC50 [2] [nM] | MLM % remaining @ 30 min [3] | Compound
8% | < 100 | 21% | Cc1c(COc2cc(OCc3cncc(C#N)c3)c(CN3CCOC[C@H]3CO)c3c2CCC3)cccc1-c1ccccc1 [Example 9, (R)-5-(((4-((3-(hydroxymethyl)morpholino)methyl)-7-((2-methyl-[1,1′-biphenyl]-3-yl)methoxy)-2,3-dihydro-1H-inden-5-yl)oxy)methyl)nicotinonitrile]
69% | < 100 | 70% | Cc1c(COc2cc(OCc3cncc(C#N)c3)c(CN3CCC3CO)c3c2CCC3)cccc1-c1ccccc1 (stereo not shown) [Example 10, 5-(((4-((2-(hydroxymethyl)azetidin-1-yl)methyl)-7-((2-methyl-[1,1′-biphenyl]-3-yl)methoxy)-2,3-dihydro-1H-inden-5-yl)oxy)methyl)nicotinonitrile]
27% | < 100 | 25% | N#Cc1c(COc2cc(OCC(F)(F)F)c(CN3CCCC[C@H]3CO)c3c2CCC3)cccc1-c1ccccc1 [Example 23, (S)-3-(((7-((2-(hydroxymethyl)piperidin-1-yl)methyl)-6-(2,2,2-trifluoroethoxy)-2,3-dihydro-1H-inden-4-yl)oxy)methyl)-[1,1′-biphenyl]-2-carbonitrile]
72% | < 100 | 67% | Cc1c(COc2cc(OCC(F)(F)F)c(CN3CCCC[C@H]3CO)c3c2CCC3)cccc1-c1ccccc1 [Example 24, (S)-(1-((7-((2-methyl-[1,1′-biphenyl]-3-yl)methoxy)-5-(2,2,2-trifluoroethoxy)-2,3-dihydro-1H-inden-4-yl)methyl)piperidin-2-yl)methanol]
– | > 500 | – | Cc1c(COc2cc(OCc3cncc(C#N)c3)c(CN3CCC3CO)c3c2CCC3)cccc1-c1ccc(C(C)(C)C)cc1 (stereo not shown) [Example 75, 5-(((7-((4′-(tert-butyl)-2-methyl-[1,1′-biphenyl]-3-yl)methoxy)-4-((2-(hydroxymethyl)azetidin-1-yl)methyl)-2,3-dihydro-1H-inden-5-yl)oxy)methyl)nicotinonitrile]
– | 100 to 500 | – | Cc1c(COc2cc(OCc3cncc(C#N)c3)c(CN3CCC3CO)c3c2CCC3)cccc1-c1ccc(F)cc1 (stereo not shown) [Example 76, 5-(((7-((4′-fluoro-2-methyl-[1,1′-biphenyl]-3-yl)methoxy)-4-((2-(hydroxymethyl)azetidin-1-yl)methyl)-2,3-dihydro-1H-inden-5-yl)oxy)methyl)nicotinonitrile]
– | > 500 | – | Cc1c(COc2cc(Oc3ccccc3)c(CN3CCC3CO)c3c2CCC3)cccc1-c1ccccc1 (stereo not shown) [Example 78, (1-((7-((2-methyl-[1,1′-biphenyl]-3-yl)methoxy)-5-phenoxy-2,3-dihydro-1H-inden-4-yl)methyl)azetidin-2-yl)methanol]
– | < 100 | – | CNC(=O)NCC1CCCN1Cc1c(OCc2cncc(C#N)c2)cc(OCc2cccc(-c3ccccc3)c2C)c2c1CCC2 (stereo not shown) [Example 80, 1-((1-((5-((5-cyanopyridin-3-yl)methoxy)-7-((2-methyl-[1,1′-biphenyl]-3-yl)methoxy)-2,3-dihydro-1H-inden-4-yl)methyl)pyrrolidin-2-yl)methyl)-3-methylurea formate]

From patent US20240246931A1, “COMPOUNDS AS PD1/PD-L1 INHIBITORS AND METHODS THEREOF” (JUBILANT PRODEL LLC, priority 2021, published 2024)
